Activity calls are given as the source filed them. The rule behind the calls is not given here.
Legend:
HT-29 [1] = test: Antiproliferative activity against human HT-29 cells assessed as inhibition of cell growth measured after 48 hrs by MTT assay; type: functional, cell-based; conditions: HT-29, 48 h
HCT-116 [2] = test: Antiproliferative activity against human HCT-116 cells assessed as inhibition of cell growth measured after 48 hrs by MTT assay; type: functional, cell-based; conditions: HCT-116, 48 h
L929 = test: Cytotoxicity against mouse L929 cells assessed as reduction in cell viability at 0.78 to 100 uM measured after 24 hrs by MTT colorimetric assay; type: toxicity, cell-based; conditions: l929, 24 h, dose 0.78-100 µM
[3] = Cytotoxicity against mouse L929 cells assessed as cell survival at 0.78 to 100 uM measured after 24 hrs by MTT colorimetric assay relative to control; type: toxicity, cell-based; conditions: dose 0.78-100 µM, read-out: Activity
HT-29 [4] = test: Induction of apoptosis in human HT-29 cells assessed as increase in cleaved caspase-3 expression measured after 24 to 48 hrs by Western blot analysis; type: functional, cell-based; conditions: time 24-48 hrs
HCT-116 [5] = test: Induction of apoptosis in human HCT-116 cells assessed as increase in cleaved caspase-3 expression measured after 24 hrs by Western blot analysis; type: functional, cell-based
HCT-116 [6] = test: Induction of apoptosis in human HCT-116 cells assessed as increase in cleaved caspase-3 expression measured after 48 hrs by Western blot analysis; type: functional, cell-based
HCT-116 [7] = test: Induction of apoptosis in human HCT-116 cells assessed as inhibition of capsase-3 expression measured after 24 to 48 hrs by Western blot analysis; type: functional, cell-based; conditions: time 24-48 hrs
HT-29 [8] = test: Induction of apoptosis in human HT-29 cells assessed as inhibition of capsase-3 expression measured after 24 to 48 hrs by Western blot analysis; type: functional, cell-based; conditions: time 24-48 hrs
HT-29 [9] = test: Induction of apoptosis in human HT-29 cells assessed as increase in cleaved PARP expression measured after 48 hrs by Western blot analysis; type: functional, cell-based
HCT-116 [10] = test: Induction of apoptosis in human HCT-116 cells assessed as increase in cleaved PARP expression measured after 24 to 48 hrs by Western blot analysis; type: functional, cell-based; conditions: time 24-48 hrs
HT-29 [11] = test: Induction of apoptosis in human HT-29 cells assessed as inhibition of PARP expression by Western blot analysis; type: functional, cell-based; conditions: time 24-48 hrs, TDE = time-dependent effect
HCT-116 [12] = test: Induction of apoptosis in human HCT-116 cells assessed as inhibition of PARP expression by Western blot analysis; type: functional, cell-based; conditions: time 24-48 hrs, TDE = time-dependent effect
HT-29 [13] = test: Induction of apoptosis in human HT-29 cells assessed as fold increase in DNA fragmentation measured after 48 hrs by ELISA method; type: functional
HCT-116 [14] = test: Induction of apoptosis in human HCT-116 cells assessed as fold increase in DNA fragmentation measured after 48 hrs by ELISA method; type: functional
HCT-116 [15] = test: Induction of apoptosis in human HCT-116 cells assessed as upregulation of Akt expression level measured after 6 to 12 hrs by Western blotting analysis; type: functional, cell-based; conditions: time 6-12 hrs
HCT-116 [16] = test: Induction of apoptosis in human HCT-116 cells assessed as downregulation of Akt phosphorylation level measured after 6 hrs by Western blotting analysis; type: functional, cell-based
HCT-116 [17] = test: Induction of apoptosis in human HCT-116 cells assessed as decrease in ERK phosphorylation level measured after 6 hrs by Western blotting analysis; type: functional, cell-based
HCT-116 [18] = test: Induction of apoptosis in human HCT-116 cells assessed as inhibition of ERK phosphorylation level measured after 12 hrs by Western blotting analysis; type: functional, cell-based
HCT-116 [19] = test: Induction of apoptosis in human HCT-116 cells assessed as activation of p38 measured after 6 to 12 hrs by Western blotting analysis; type: functional, cell-based; conditions: time 6-12 hrs
HCT-116 [20] = test: Induction of apoptosis in human HCT-116 cells assessed as effect on ERK expression level measured after 6 to 12 hrs by Western blotting analysis; type: functional, cell-based; conditions: time 6-12 hrs
HT-29 [21] = test: Antiproliferative activity against human HT-29 cells assessed as inhibition of cell growth at 50 uM measured after 48 hrs by MTT assay; type: functional, cell-based; conditions: HT-29, 48 h
HCT-116 [22] = test: Antiproliferative activity against human HCT-116 cells assessed as inhibition of cell growth at 50 uM measured after 48 hrs by MTT assay; type: functional, cell-based; conditions: HCT-116, 48 h

Row | Compound | IC50 (HT-29 [1]) [µM] | IC50 (HCT-116 [2]) [µM] | Activity (L929) | viability at 24 h, up to 100 µM [3] [%] | also measured
1 | c1ccc(C(c2ccc(OCc3cn(C[C@H]4CCCN4)nn3)cc2)c2ccc(OCc3cn(C[C@H]4CCCN4)nn3)cc2)nc1 | > 50 | > 50 | Non-Toxic | 100 | 
2 | OC[C@@H](O)[C@H]1O[C@H](O)[C@H](O)[C@H]1n1cc(COc2ccc(C(c3ccc(OCc4cn([C@@H]5[C@@H](O)[C@@H](O)O[C@@H]5[C@H](O)CO)nn4)cc3)c3ccccn3)cc2)nn1 (some centres undefined) | > 50 | > 50 |  |  | 
3 | [O-][n+]1ccccc1C(c1ccc(OCc2cn(CCN3CCCCC3)nn2)cc1)c1ccc(OCc2cn(CCN3CCCCC3)nn2)cc1 | > 50 | > 50 |  |  | IC50 (HT-29 [21]): > 50 µM; IC50 (HCT-116 [22]): > 50 µM
4 | C#CCOc1ccc(C(c2ccc(OCc3cn(Cc4ccccc4)nn3)cc2)c2ccccn2)cc1 (centres undefined) | > 50 | > 50 | Non-Toxic | 100 | 
5 | c1ccc(Cn2cc(COc3ccc(C(c4ccc(OCc5cn(Cc6ccccc6)nn5)cc4)c4ccccn4)cc3)nn2)cc1 | > 50 | > 50 | Non-Toxic | 100 | 
6 | O[C@@H]1[C@@H](O)[C@@H](O)O[C@H](Cn2cc(COc3ccc(C(c4ccc(OCc5cn(C[C@H]6O[C@H](O)[C@H](O)[C@@H](O)[C@H]6O)nn5)cc4)c4ccccn4)cc3)nn2)[C@@H]1O (some centres undefined) | > 50 | > 50 |  |  | 

The next lines start with results.

Row | IC50 (HT-29 [1]) [µM] | IC50 (HCT-116 [2]) [µM] | Compound | Activity (L929) | viability at 24 h, up to 100 µM [3] [%] | also measured
7 | > 50 | > 50 | C#CCOc1ccc(C(c2ccc(OCc3cnnn3CCCN)cc2)c2ccccn2)cc1 (centres undefined) | Non-Toxic | 100 | 
8 | 11 | 14.4 | c1ccc(C(c2ccc(OCc3cn(CCN4CCCCC4)nn3)cc2)c2ccc(OCc3cn(CCN4CCCCC4)nn3)cc2)nc1 | Non-Toxic | 100 | Activity (HT-29 [4]): Active; Activity (HCT-116 [5]): inactive; Activity (HCT-116 [6]): Active; Activity (HCT-116 [7]): Active; Activity (HT-29 [8]): Active; Activity (HT-29 [9]): Active; Activity (HCT-116 [10]): Active; Activity (HT-29 [11]): Tde; Activity (HCT-116 [12]): Tde; fold change (FC) (HT-29 [13]): 5.37; fold change (FC) (HCT-116 [14]): 6.73; Activity (HCT-116 [15]): Active; Activity (HCT-116 [16]): Active; Activity (HCT-116 [17]): Active; Activity (HCT-116 [18]): Active; Activity (HCT-116 [19]): inactive; Activity (HCT-116 [20]): inactive
9 | 24.7 | 45 | C#CCOc1ccc(C(c2ccc(OCc3cn(CCN4CCCCC4)nn3)cc2)c2ccccn2)cc1 (centres undefined) | Non-Toxic | 100 | 
